Experimental findings from US6583180B2, “Glucocorticoid receptor modulators” (Abbott Laboratories, priority 2001, dated 2003) are described below.

For experiment [1], the target named is T1, progesterone receptor (PR) (Homo sapiens, UniProt P06401).
T1 sequence (P06401 1-933): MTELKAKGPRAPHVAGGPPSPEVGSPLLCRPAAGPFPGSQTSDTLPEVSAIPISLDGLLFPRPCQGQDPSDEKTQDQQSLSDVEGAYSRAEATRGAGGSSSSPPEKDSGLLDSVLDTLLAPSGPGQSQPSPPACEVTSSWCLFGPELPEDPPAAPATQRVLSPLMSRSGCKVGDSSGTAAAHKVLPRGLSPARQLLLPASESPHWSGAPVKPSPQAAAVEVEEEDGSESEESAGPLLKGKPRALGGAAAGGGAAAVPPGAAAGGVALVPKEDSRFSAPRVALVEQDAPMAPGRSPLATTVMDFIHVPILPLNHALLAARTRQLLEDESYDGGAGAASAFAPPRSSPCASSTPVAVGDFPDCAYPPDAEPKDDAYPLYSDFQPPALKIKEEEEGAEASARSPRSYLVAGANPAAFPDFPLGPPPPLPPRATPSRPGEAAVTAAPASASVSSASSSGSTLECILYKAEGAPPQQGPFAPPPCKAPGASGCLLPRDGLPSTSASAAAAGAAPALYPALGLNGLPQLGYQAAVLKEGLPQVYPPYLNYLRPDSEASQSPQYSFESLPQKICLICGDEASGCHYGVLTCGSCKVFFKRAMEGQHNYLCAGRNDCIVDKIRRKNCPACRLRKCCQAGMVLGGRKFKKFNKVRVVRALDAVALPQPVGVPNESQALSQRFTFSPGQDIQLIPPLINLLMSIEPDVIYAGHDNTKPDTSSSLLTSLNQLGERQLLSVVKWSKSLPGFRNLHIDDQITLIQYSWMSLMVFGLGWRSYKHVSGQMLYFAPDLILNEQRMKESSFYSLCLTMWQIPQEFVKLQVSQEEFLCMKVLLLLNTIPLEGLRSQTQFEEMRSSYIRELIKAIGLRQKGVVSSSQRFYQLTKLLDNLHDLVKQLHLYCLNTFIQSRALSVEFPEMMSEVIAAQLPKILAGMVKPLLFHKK
The experiment can be described thus: Radioligand binding assay for progesterone receptor (similar protocol).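 Note: radioligand binding measured with cytosol preparations containing the human progesterone receptor.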
Description: Methods for Radiolipand Binding Studies with Human Glucocorticoid and Progesterone Receptor Cytosol

The target in experiment [2] is T2, Human glucocorticoid receptors (Homo sapiens, UniProt P04150).
T2 construct: made in house; host or cells: Sf9 insect cells, recombinant baculovirus (BAC-TO-BAC)
T2 sequence (P04150 1-777): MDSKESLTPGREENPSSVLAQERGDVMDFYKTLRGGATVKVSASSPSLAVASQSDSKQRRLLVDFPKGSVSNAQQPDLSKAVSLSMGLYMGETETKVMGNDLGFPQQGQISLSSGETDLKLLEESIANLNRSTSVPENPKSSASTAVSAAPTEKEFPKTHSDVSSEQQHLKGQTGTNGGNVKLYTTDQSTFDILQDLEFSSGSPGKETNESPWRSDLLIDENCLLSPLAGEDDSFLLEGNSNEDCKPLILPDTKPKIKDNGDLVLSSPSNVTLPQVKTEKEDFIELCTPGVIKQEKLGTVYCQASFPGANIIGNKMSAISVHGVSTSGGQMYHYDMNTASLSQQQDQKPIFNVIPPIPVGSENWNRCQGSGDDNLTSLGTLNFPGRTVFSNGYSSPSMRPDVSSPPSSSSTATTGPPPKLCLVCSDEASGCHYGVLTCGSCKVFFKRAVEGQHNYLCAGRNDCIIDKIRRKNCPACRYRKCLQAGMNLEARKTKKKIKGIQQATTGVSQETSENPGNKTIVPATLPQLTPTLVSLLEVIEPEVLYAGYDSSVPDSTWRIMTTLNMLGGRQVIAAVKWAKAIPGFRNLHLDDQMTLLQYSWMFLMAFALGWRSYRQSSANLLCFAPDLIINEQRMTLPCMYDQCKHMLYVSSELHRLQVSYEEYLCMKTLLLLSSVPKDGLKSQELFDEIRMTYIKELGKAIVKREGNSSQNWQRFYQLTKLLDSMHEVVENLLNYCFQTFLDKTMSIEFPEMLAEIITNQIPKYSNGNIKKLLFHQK
Nature of the experiment: Radioligand filter binding assay, displacement of 3[H]-dexamethasone from hGR. The conditions noted are these: read-out: GR Binding (% Inhibition at 1.7 μM). Put shortly:
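Recombinant hGR extract from baculovirus-infected Sf9 cells (final ~1 nM receptor) incubated with ³H-dexamethasone and test compound dilutions in duplicate, EDTA/phosphate pH 8 buffer with MTG, overnight (15-20 h) at +4° C. Bound label collected on PEI-treated GF/B filters and scintillation-counted; IC50 from four-parameter fit of corrected cpm.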

Each structure is given as a SMILES string. pIC50: −log10 of the molar value.

Take `Cc1c(NS(C)(=O)=O)cccc1N(Cc1ccccc1Br)Cc1ccccc1Br` [Example 1, N-{3-[bis(2-bromobenzyl)amino]-2-methylphenyl}methanesulfonamide]: the pIC50 – broadly, the IC50 on a negative log10 scale, so that one unit is a factor of ten – in experiment [1] is 6.22. For the same molecule, the inhibition – broadly, the percentage by which the read-out fell short of the control – at 1.7 µM in experiment [2] was determined as 88.1%.
In turn, `Cc1c(NS(C)(=O)=O)cccc1N(Cc1ccccc1)Cc1ccc(F)cc1` [Example 9, N-{3-[benzyl(4-fluorobenzyl)amino]-2-methylphenyl}methanesulfonamide] gave a pIC50 in experiment [1] of 5.39.
Same read-out and setting: then `Cc1c(NS(C)(=O)=O)cccc1N(Cc1ccccc1)Cc1ccc(F)cc1F` [Example 10, N-{3-[benzyl(2,4-difluorobenzyl)amino]-2-methylphenyl}methanesulfonamide], with 5.64; and `Cc1c(NS(C)(=O)=O)cccc1N(Cc1ccccc1)Cc1ccc(Br)cc1` [Example 13, N-{3-[benzyl(4-bromobenzyl)amino]-2-methylphenyl}methanesulfonamide], with 5.73.
In experiment [1], `C=CCOc1ccc(CN(Cc2ccc(F)cc2F)c2cccc(NS(C)(=O)=O)c2C)cc1` [Example 20, N-{3-[[4-(allyloxy)benzyl](2,4-difluorobenzyl)amino]-2-methylphenyl}methanesulfonamide] showed a pIC50 of 6.37. For the same molecule, in experiment [2], the inhibition at 1.7 µM stood at 84.2%.
Turning to `COc1ccc(CN(Cc2ccc(F)cc2F)c2cccc(NS(C)(=O)=O)c2C)cc1` [Example 22, N-{3-[(2,4-difluorobenzyl)(4-methoxybenzyl)amino]-2-methylphenyl}methanesulfonamide], the pIC50 in experiment [1] is 5.83.
`Cc1c(NS(C)(=O)=O)cccc1N(Cc1ccccc1F)Cc1ccc(F)cc1F` [Example 23, N-{3-[(2,4-difluorobenzyl)(2-fluorobenzyl)amino]-2-methylphenyl}methanesulfonamide]: in experiment [1], the pIC50 was 6.04. Moreover, the inhibition at 1.7 µM in experiment [2] came out at 92%.
On to `Cc1c(NS(C)(=O)=O)cccc1N(Cc1ccc(F)cc1F)Cc1ccc(F)cc1F` [Example 24, N-{3-[bis(2,4-difluorobenzyl)amino]-2-methylphenyl}methanesulfonamide], for which, in experiment [1], the pIC50 is 5.59.
`Cc1c(NS(C)(=O)=O)cccc1N(Cc1ccccc1)Cc1ccc(Cl)cc1` [Example 29, N-{3-[benzyl(4-chlorobenzyl)amino]-2-methylphenyl}methanesulfonamide] showed a pIC50 in experiment [1] of less than 5.00.
Consider `Cc1c(NS(C)(=O)=O)cccc1N(Cc1ccccc1)Cc1ccc(Cl)cc1Cl` [Example 32, N-{3-[benzyl(2,4-dichlorobenzyl)amino]-2-methylphenyl}methanesulfonamide], for which, in experiment [1], the pIC50 is 5.76.
The molecule `Cc1c(NS(C)(=O)=O)cccc1N(Cc1ccccc1)Cc1ccc(OCC=CBr)cc1` [Example 35, N-{3-[benzyl(4-{[3-bromo-2-propenyl]oxy}benzyl)amino]-2-methylphenyl}methanesulfonamide] showed a pIC50 in experiment [1] of less than 5.00.
In the case of `Cc1c(NS(C)(=O)=O)cccc1N(Cc1ccc(Oc2ccc(CCC(=O)O)cc2)cc1)Cc1ccc(F)cc1F` [Example 50, N-{3-[(4-(4-(2-carboxyethyl)phenoxy)benzyl)(2,4-difluorobenzyl)amino]-2-methylphenyl}methanesulfonamide], in experiment [1], the pIC50 is 6.72.
`Cc1c(NS(C)(=O)=O)cccc1N(Cc1ccccc1)Cc1ccc(Oc2cccc(OCC(=O)O)c2)cc1` [Example 62, (3-{4-[(benzyl{2-methyl-3-[(methylsulfonyl)amino]phenyl}amino)methyl]phenoxy}phenoxy)acetic acid] gave a pIC50 in experiment [1] of 6.61.
Regarding `Cc1c(NS(C)(=O)=O)cccc1N(Cc1ccc(Oc2ccc(CCC(=O)O)cc2)cc1)Cc1ccc(Cl)cc1F` [Example 86, 3-(4-{4-[((4-chloro-2-fluorobenzyl){2-methyl-3-[(methylsulfonyl)amino]phenyl}amino)methyl]phenoxy}phenyl)propanoic acid], the pIC50 in experiment [1] is 6.67.
On the same count and under the same terms, then `Cc1c(NS(C)(=O)=O)cccc1N(Cc1ccccc1)Cc1ccc(Oc2ccc(C(=O)O)cc2)cc1` [Example 96, 4-{4-[(benzyl{2-methyl-3-[(methylsulfonyl)amino]phenyl}amino)methyl]phenoxy}benzoic acid], with less than 6.00; and `COCOc1ccc(Oc2ccc(CN(Cc3ccccc3)c3cccc(NS(C)(=O)=O)c3C)cc2)cc1` [Example 97, N-[3-(benzyl{4-[4-(methoxymethoxy)phenoxy]benzyl}amino)-2-methylphenyl]methanesulfonamide], with 6.11.
On to `Cc1c(NS(C)(=O)=O)cccc1N(Cc1ccc(Br)cc1)Cc1ccc(Oc2ccccc2)cc1` [Example 103, N-{3-[(4-bromobenzyl)(4-phenoxybenzyl)amino]-2-methylphenyl}methanesulfonamide], for which, in experiment [1], the pIC50 was 7.11.
`Cc1c(NS(C)(=O)=O)cccc1N(Cc1ccccc1)Cc1ccc(Oc2ccc(CCCC(=O)NCC(=O)O)cc2)cc1` [Example 107, N-[4-(4-{4-[(benzyl{2-methyl-3-[(methylsulfonyl)amino]phenyl}amino)methyl]phenoxy}phenyl)butanoyl]glycine] had a pIC50 in experiment [1] of 6.13.
`Cc1c(NS(C)(=O)=O)cccc1N(Cc1ccccc1)Cc1ccc(Oc2cccc(O)c2)cc1` [Example 115, N-(3-{benzyl[4-(3-hydroxyphenoxy)benzyl]amino}-2-methylphenyl)methanesulfonamide]: in experiment [1], the pIC50 was 6.78.
Consider `CSc1ccc(CN(Cc2ccc(Cl)cc2F)c2cccc(NS(C)(=O)=O)c2C)cc1` [Example 144, N-(3-{(4-chloro-2-fluorobenzyl)[4-(methylthio)benzyl]amino}-2-methylphenyl)methanesulfonamide], for which the pIC50 in experiment [1] is 5.89.
In the case of `Cc1c(NS(C)(=O)=O)cccc1N(Cc1ccccc1F)Cc1ccc(Cl)cc1F` [Example 145, N-{3-[(4-chloro-2-fluorobenzyl)(2-fluorobenzyl)amino]-2-methylphenyl}methanesulfonamide], the pIC50 in experiment [1] was 6.45.
As for `Cc1c(NS(C)(=O)=O)cccc1N(Cc1ccc(Oc2ccc(F)c(OCC(=O)O)c2)cc1)Cc1ccc(F)cc1F` [Example 305, (5-(4-(((2,4-difluorobenzyl)(2-methyl-3-((methylsulfonyl)amino)phenyl)amino)methyl)phenoxy)-2-fluorophenoxy)acetic acid], the pIC50 in experiment [1] is 8.05.
For `Cc1c(NS(C)(=O)=O)cccc1N(Cc1ccccc1)Cc1ccc(Oc2ccc(Cl)c(OCCCC(=O)NCCCC(=O)O)c2)cc1` [Example 319, 4-((4-(5-(4-((benzyl(2-methyl-3-((methylsulfonyl)amino)phenyl)amino)methyl)phenoxy)-2-chlorophenoxy)butanoyl)amino)butanoic acid], the inhibition at 1.7 µM in experiment [2] came out at 96.4%.
For the molecule `Cc1c(NS(C)(=O)=O)cccc1N(Cc1ccc(Oc2ccc(Cl)c(OCCCC(=O)NCCCC(=O)O)c2)cc1)Cc1ccc(F)cc1F` [Example 320, 4-((4-(2-chloro-5-(4-(((2,4-difluorobenzyl)(2-methyl-3-((methylsulfonyl)amino)phenyl)amino)methyl)phenoxy)phenoxy)butanoyl)amino)butanoic acid], the inhibition at 1.7 µM in experiment [2] was found to be 96.8%.
`Cc1c(NS(C)(=O)=O)cccc1N(Cc1ccc(Oc2ccc(Cl)c(O[C@H](C)C(=O)O)c2)cc1)Cc1ccc(F)cc1F` [Example 321, (2R)-2-(2-chloro-5-(4-(((2,4-difluorobenzyl)(2-methyl-3-((methylsulfonyl)amino)phenyl)amino)methyl)phenoxy)phenoxy)propanoic acid]: the inhibition at 1.7 µM in experiment [2] came to 96.4%.
